Reference: US7884083B2, “Immunomodulatory compositions, methods of making, and methods of use thereof” (Dynavax Technologies Corporation, priority 2002, dated 2011)

Legend:
[1] = tested on: plasmacytoind dendritic cells (PDCs) of human PBMCs; experiment: Intracellular staining and FACS analysis of IFN-α production from PDCs; type: cell-based; details: double-staining cells as percentage of total PBMCs, 20 μg/mL oligonucleotide, 100 μg/mL PMXB, six hours
Procedure: Intracellular staining assays and FACS analysis were used to examine IFN-α production from the plasmacytoind dendritic cells (PDCs) of human PBMCs. […] For these assays, the IMC or -ISS and the polymyxin were added separately to the PBMC cell culture which contained human serum albumin. […] After the six hours, the cells were stained with a fluorescently labeled PDC marker, anti-BCDA-2 labeled with FITC, and with anti-IFN-α labeled with PE. FACS analysis of the labeled cells was performed.

[2] = tested on: human peripheral blood lymphocytes (PBMCs); experiment: hPBMC assay: IFN-γ and IFN-α production by human PBMCs (ELISA); type: cell-based; details: for immunomodulatory activity in the hPBMC assay: result in words; for IFN-γ/α-enhancing activity in comparison to PMXB or CLN: in words, Table 10 experiment
[3] = dodecyl spacer measured as dialcohol precursor; cited from earlier work
[4] = hydrophobic/lipophilic balance value; cited from earlier work
[5] = Donor 198, no Time given, 20 μg/ml oligonucleotide
[6] = Donor 199, no Time given, 20 μg/ml oligonucleotide
[7] = Donor 28212, Controls, 20 μg/ml oligonucleotide, 100 μg/ml polymyxin
[8] = Donor 28213, Controls, 20 μg/ml oligonucleotide, 100 μg/ml polymyxin
[9] = Donor # 9, 20 μg/ml oligonucleotide, 100 μg/ml PMXB, 24 hours
[10] = Donor # 20, 20 μg/ml oligonucleotide, 100 μg/ml PMXB, 24 hours
[11] = Donor # 37, 20 μg/ml oligonucleotide, 100 μg/ml PMXB, 24 hours
[12] = Donor # 75, 20 μg/ml oligonucleotide, 100 μg/ml PMXB, 24 hours
[13] = Donor # 86, 20 μg/ml oligonucleotide, 100 μg/ml PMXB, 24 hours
[14] = Donor # 87, 20 μg/ml oligonucleotide, 100 μg/ml PMXB, 24 hours
[15] = Donor # 88, 20 μg/ml oligonucleotide, 100 μg/ml PMXB, 24 hours
[16] = Donor # 89, 20 μg/ml oligonucleotide, 100 μg/ml PMXB, 24 hours
[17] = Donor # 90, 20 μg/ml oligonucleotide, 100 μg/ml PMXB, 24 hours
[18] = Donor # 91, 20 μg/ml oligonucleotide, 100 μg/ml PMXB, 24 hours
[19] = Donor # 94, 20 μg/ml oligonucleotide, 100 μg/ml PMXB, 24 hours
[20] = Donor # 95, 20 μg/ml oligonucleotide, 100 μg/ml PMXB, 24 hours
[21] = Donor # 96, 20 μg/ml oligonucleotide, 100 μg/ml PMXB, 24 hours
[22] = Donor # 97, 20 μg/ml oligonucleotide, 100 μg/ml PMXB, 24 hours
[23] = Mean (Table 4), Controls, 20 μg/ml oligonucleotide, 100 μg/ml polymyxin
[24] = Mean (Table 5), no Time given, 20 μg/ml oligonucleotide
[25] = Mean of donors (Table 2), 20 μg/ml oligonucleotide, 100 μg/ml PMXB, 24 hours
[26] = Table 3, Donor 1, PMXB 100 μg/ml, AMTB 10 μg/ml, serum containing medium
[27] = Table 3, Donor 2, PMXB 100 μg/ml, AMTB 10 μg/ml, serum containing medium
[28] = Table 3, Mean, PMXB 100 μg/ml, AMTB 10 μg/ml, serum containing medium
[29] = Table 10, donor 1, 20 μg/ml oligonucleotide, 100 μg/ml polymyxin derivative added separately, 24 hours
[30] = Table 10, donor 2, 20 μg/ml oligonucleotide, 100 μg/ml polymyxin derivative added separately, 24 hours
[31] = Table 10, donor 3, 20 μg/ml oligonucleotide, 100 μg/ml polymyxin derivative added separately, 24 hours
[32] = Table 10, donor 4, 20 μg/ml oligonucleotide, 100 μg/ml polymyxin derivative added separately, 24 hours
[33] = Table 10, donor 5, 20 μg/ml oligonucleotide, 100 μg/ml polymyxin derivative added separately, 24 hours
[34] = Table 10, donor 6, 20 μg/ml oligonucleotide, 100 μg/ml polymyxin derivative added separately, 24 hours
[35] = Table 10, mean of 6 donors, 20 μg/ml oligonucleotide, 100 μg/ml polymyxin derivative added separately, 24 hours
[36] = Donor 28232, no Time given, 20 μg/ml oligonucleotide, 100 μg/ml polymyxin
[37] = Donor 28233, no Time given, 20 μg/ml oligonucleotide, 100 μg/ml polymyxin
[38] = Mean (Table 6), no Time given, 20 μg/ml oligonucleotide, 100 μg/ml polymyxin
[39] = Table 9, Mean, 20 μg/ml oligonucleotide, 100 μg/ml polymyxin
[40] = Table 9, donor 149, 20 μg/ml oligonucleotide, 100 μg/ml polymyxin
[41] = Table 9, donor 208, 20 μg/ml oligonucleotide, 100 μg/ml polymyxin

“5′-TCGTCGAACGTTCGAGATGAT-3′ [SEQ ID NO: 39]” showed a BCDA-2/IFN-α d.p. % ([1]; donor 1) of 0.08%, a BCDA-2/IFN-α d.p. % ([1]; donor 2) of 0.14% and a BCDA-2/IFN-α d.p. % ([1]; mean) of 0.11%.
With “5′-TGACTGTGAACCTTAGAGATGA-3′ (DNA, all phosphorothioate, methylation of C not given here) [−ISS]” the IFN-α [2, 5] was 151 pg/mL, the IFN-γ [2, 5] was 5 pg/mL and the IFN-α [2, 6] was 279 pg/mL. The IFN-γ [2, 6] was 18 pg/mL, the IFN-α [2, 7] was 225 pg/mL and the IFN-γ [2, 7] was 5 pg/mL. For the same compound, the IFN-α [2, 8] was 156 pg/mL, the IFN-γ [2, 8] was 7 pg/mL and the IFN-α [2, 9] was 0 pg/mL. The IFN-γ [2, 9] was 0 pg/mL, the IFN-γ [2, 10] was 4 pg/mL and the IFN-α [2, 11] was 0 pg/mL. It also gave an IFN-γ [2, 11] of 5 pg/mL, an IFN-γ [2, 12] of 1 pg/mL and an IFN-α [2, 13] of 15 pg/mL. The IFN-γ [2, 13] was 12 pg/mL, the IFN-α [2, 14] was 0 pg/mL and the IFN-γ [2, 14] was 12 pg/mL. It also gave an IFN-α [2, 15] of 19 pg/mL, an IFN-γ [2, 15] of 70 pg/mL and an IFN-α [2, 16] of 17 pg/mL. For the same compound, the IFN-γ [2, 16] was 7 pg/mL, the IFN-α [2, 17] was 0 pg/mL and the IFN-γ [2, 17] was 0 pg/mL. The IFN-α [2, 18] was 0 pg/mL, the IFN-γ [2, 18] was 30 pg/mL and the IFN-α [2, 19] was 0 pg/mL. For the same compound, the IFN-γ [2, 19] was 0 pg/mL, the IFN-α [2, 20] was 0 pg/mL and the IFN-γ [2, 20] was 4 pg/mL. For the same compound, the IFN-γ [2, 21] was 9 pg/mL, the IFN-γ [2, 22] was 5 pg/mL and the IFN-α [2, 23] was 191 pg/mL. The IFN-γ [2, 23] was 6 pg/mL, the IFN-α [2, 24] was 215 pg/mL and the IFN-γ [2, 24] was 12 pg/mL. The IFN-α [2, 25] was 5 pg/mL, the IFN-γ [2, 25] was 11 pg/mL and the IFN-α [2, 26] was 3 pg/mL. The IFN-γ [2, 26] was 1 pg/mL, the IFN-α [2, 27] was 0 pg/mL and the IFN-γ [2, 27] was 0 pg/mL. It also gave an IFN-α [2, 28] of 1 pg/mL, an IFN-γ [2, 28] of 0 pg/mL and an IFN-α [2, 29] of 52 pg/mL. The IFN-γ [2, 29] was 2 pg/mL, the IFN-α [2, 30] was 52 pg/mL and the IFN-γ [2, 30] was 2 pg/mL. For the same compound, the IFN-α [2, 31] was 52 pg/mL, the IFN-γ [2, 31] was 2 pg/mL and the IFN-α [2, 32] was 52 pg/mL. The IFN-γ [2, 32] was 2 pg/mL, the IFN-α [2, 33] was 26 pg/mL and the IFN-γ [2, 33] was 10 pg/mL. For the same compound, the IFN-α [2, 34] was 26 pg/mL, the IFN-γ [2, 34] was 2 pg/mL and the IFN-α [2, 35] was 43 pg/mL. The IFN-γ [2, 35] was 3 pg/mL.
Compound “5′-TGCTTGCAAGCTTGCAAGCA-3′ (listed as DNA, chemistry not given here) [−ISS SEQ ID NO: 38, reference compound]” has a BCDA-2/IFN-α d.p. % ([1]; donor 1) of 0.00%, a BCDA-2/IFN-α d.p. % ([1]; donor 2) of 0.00% and a BCDA-2/IFN-α d.p. % ([1]; mean) of 0.00%.
For `OCCCCCCCCCCCCO` [1,12-dihydroxydodecane], the solubility [3] is listed as < 5000 µg/mL.
`C[C@@H]1[C@H](O)[C@@H](C)/C=C/C=C/C=C/C=C/C=C/C=C/C=C/[C@H](O[C@@H]2O[C@H](C)[C@@H](O)[C@H](N)[C@@H]2O)C[C@@H]2O[C@](O)(C[C@@H](O)C[C@@H](O)[C@H](O)CC[C@@H](O)C[C@@H](O)CC(=O)O[C@H]1C)C[C@H](O)[C@H]2C(=O)O` [AMTB, amphotericin B] gave an IFN-α [2, 26] of 0 pg/mL, an IFN-γ [2, 26] of 0 pg/mL and an IFN-α [2, 27] of 0 pg/mL. The IFN-γ [2, 27] was 0 pg/mL, the IFN-α [2, 28] was 0 pg/mL and the IFN-γ [2, 28] was 0 pg/mL. For the same compound, the “immunomodulatory activity in the hPBMC assay” value [2] was “no activity on its own”.
In the case of Polymyxin B [PMXB], the IFN-α [2, 7] is reported as 268 pg/mL, the IFN-γ [2, 7] is reported as 5 pg/mL and the IFN-α [2, 8] is reported as 213 pg/mL. The IFN-γ [2, 8] was 4 pg/mL, the IFN-Υ [2, 36] was 8 pg/mL and the IFN-α [2, 36] was 16 pg/mL. The IFN-Υ [2, 37] was 7 pg/mL, the IFN-α [2, 37] was 84 pg/mL and the IFN-γ [2, 10] was 20 pg/mL. It also gave an IFN-α [2, 11] of 0 pg/mL, an IFN-γ [2, 11] of 228 pg/mL and an IFN-γ [2, 12] of 6 pg/mL. The IFN-α [2, 13] was 353 pg/mL, the IFN-γ [2, 13] was 23 pg/mL and the IFN-α [2, 14] was 326 pg/mL. It also gave an IFN-γ [2, 14] of 33 pg/mL, an IFN-α [2, 15] of 33 pg/mL and an IFN-γ [2, 15] of 112 pg/mL. The IFN-α [2, 16] was 9 pg/mL, the IFN-γ [2, 16] was 3 pg/mL and the IFN-α [2, 17] was 0 pg/mL. The IFN-γ [2, 17] was 0 pg/mL, the IFN-α [2, 18] was 0 pg/mL and the IFN-γ [2, 18] was 47 pg/mL. For the same compound, the IFN-α [2, 20] was 0 pg/mL, the IFN-γ [2, 20] was 17 pg/mL and the IFN-γ [2, 21] was 55 pg/mL. It also gave an IFN-γ [2, 22] of 21 pg/mL, an IFN-α [2, 23] of 241 pg/mL and an IFN-γ [2, 23] of 5 pg/mL. For the same compound, the IFN-Υ [2, 38] was 7 pg/mL, the IFN-α [2, 38] was 50 pg/mL and the IFN-α [2, 25] was 90 pg/mL. The IFN-γ [2, 25] was 47 pg/mL, the IFN-α [2, 26] was 1 pg/mL and the IFN-γ [2, 26] was 23 pg/mL. For the same compound, the IFN-α [2, 27] was 0 pg/mL, the IFN-γ [2, 27] was 6 pg/mL and the IFN-α [2, 28] was 0 pg/mL. For the same compound, the IFN-γ [2, 28] was 15 pg/mL, the IFN-Υ [2, 39] was 127 pg/mL and the IFN-α [2, 39] was 32 pg/mL. For the same compound, the IFN-Υ [2, 40] was 195 pg/mL, the IFN-α [2, 40] was 32 pg/mL and the IFN-Υ ([2]; Table 9, donor 206, 20 μg/ml oligonucleotide, 100 μg/ml polymyxin) was 14 pg/mL. It also gave an IFN-Υ [2, 41] of 171 pg/mL, an IFN-α [2, 41] of 32 pg/mL and an IFN-α ([2]; Table 9, donor 209, 20 μg/ml oligonucleotide, 100 μg/ml polymyxin) of 32 pg/mL. For the same compound, the “immunomodulatory activity in the hPBMC assay” value [2] was “no immunomodulatory activity on its own”.
With colistin methanesulfonate [CMS] the “IFN-γ/α-enhancing activity in comparison to PMXB or CLN” value [2] was “substantially reduced”.
In the case of polyethylene glycol sorbitan monooleate, the HLB [4] is listed as 15.4.
In the case of polymyxin B nonapeptide [PMXB-9], the “IFN-γ/α-enhancing activity in comparison to PMXB or CLN” value [2] is reported as “substantially reduced”.
In the case of “polyoxyethylene(20) sorbitan trioleate [Tween 85]”, the IFN-Υ [2, 36] is reported as 15 pg/mL, the IFN-α [2, 36] is reported as 66 pg/mL and the IFN-Υ [2, 37] is reported as 6 pg/mL. For the same compound, the IFN-α [2, 37] was 55 pg/mL, the IFN-Υ [2, 38] was 11 pg/mL and the IFN-α [2, 38] was 60 pg/mL. The HLB [4] was 11.
